Measurements as given in publication PMC3823026, “Protein–Protein Interaction Regulates the Direction of Catalysis and Electron Transfer in a Redox Enzyme Complex” (Journal of the American Chemical Society, 2013).

Experiments:
Format in all cases: biochemical
CymA [1] = biological target: T1, CymA (Shewanella oneidensis, UniProt Q8E8S0); test: cyclic voltammetry, catalytic oxidation current with dithionite (menaquinone reduction); details: 1 mM dithionite, 1% (w/w) MQ-7, pH 7.4, 21 °C
T1 construct: full-length recombinant tetraheme CymA (24 kDa), isolated from MR-1, reconstituted in POPC/cardiolipin membrane, no Fcc3
T1 sequence (Q8E8S0 1-187): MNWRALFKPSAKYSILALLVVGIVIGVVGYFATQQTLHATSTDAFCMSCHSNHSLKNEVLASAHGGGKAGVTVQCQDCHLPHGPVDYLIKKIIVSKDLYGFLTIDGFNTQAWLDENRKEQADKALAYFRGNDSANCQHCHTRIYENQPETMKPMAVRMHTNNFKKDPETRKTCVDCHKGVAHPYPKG

CymA-Fcc3 complex [2] = biological target: T2, CymA-Fcc3 complex (Shewanella oneidensis, UniProt Q8E8S0); test: cyclic voltammetry, catalytic fumarate reduction current on membrane-modified gold electrode; details: 1 mM fumarate, 1% (w/w) MQ-7, pH 7.4, 21 °C; competitive quinol-site inhibitor
T2 construct: isolated from MR-1; with Fumarate reductase (cytochrome), flavocytochrome c3
T2 sequence (Q8E8S0 1-187): T1 sequence (Q8E8S0 1-187)
T2 sequence (P83223 26-596 partner): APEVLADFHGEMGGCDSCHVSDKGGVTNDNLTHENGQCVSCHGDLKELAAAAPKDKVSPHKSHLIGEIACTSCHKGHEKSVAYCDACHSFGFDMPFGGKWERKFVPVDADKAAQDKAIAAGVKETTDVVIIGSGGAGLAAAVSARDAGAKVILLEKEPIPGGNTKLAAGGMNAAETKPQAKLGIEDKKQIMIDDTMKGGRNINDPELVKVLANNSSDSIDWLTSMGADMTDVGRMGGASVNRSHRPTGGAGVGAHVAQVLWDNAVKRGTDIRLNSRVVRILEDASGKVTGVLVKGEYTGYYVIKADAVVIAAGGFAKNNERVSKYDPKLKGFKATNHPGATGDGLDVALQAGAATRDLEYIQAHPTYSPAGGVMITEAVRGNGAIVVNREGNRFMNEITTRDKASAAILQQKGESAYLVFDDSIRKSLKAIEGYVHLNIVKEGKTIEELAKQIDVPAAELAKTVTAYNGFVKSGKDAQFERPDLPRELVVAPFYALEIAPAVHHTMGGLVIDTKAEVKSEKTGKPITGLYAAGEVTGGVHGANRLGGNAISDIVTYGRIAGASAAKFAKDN

CymA [3] = biological target: T1, CymA; test: cyclic voltammetry, dithionite as reductant; details: 1 mM dithionite, pH 7.4, 21 °C, no Fcc3
Fcc3 = biological target: T3, Fcc3 (Shewanella oneidensis, UniProt P83223); test: cyclic voltammetry, catalytic reduction current; details: 1 mM fumarate, electrons from MQ-7 via CymA, pH 7.4, 21 °C
T3 construct: gene fccA; monomer in solution; with Membrane anchored tetraheme cytochrome c CymA
T3 sequence (P83223 26-596): T2 sequence (P83223 26-596 partner)
T3 sequence (Q8E8S0 1-187 partner): T1 sequence (Q8E8S0 1-187)

CymA-Fcc3 complex [4] = biological target: T2, CymA-Fcc3 complex; test: cyclic voltammetry, membrane-modified gold electrode, MQ-7 content varied; details: fumarate 1 mM as acceptor, pH 7.4, 21 °C; MQ-7 in membrane as % (w/w); Michaelis-Menten fit, constant not given

With `CCCCCCCc1cc(O)c2ccccc2[n+]1[O-]` [2-n-heptyl-4-hydroxyquinoline N-oxide, 2-n-Heptyl-4-hydroxyquinoline N-oxide] the “inhibition at 10 μM” value (CymA [1]) was “a catalytic oxidation signal appears that is inhibited by addition of HQNO” and the “inhibition at 10 μM” value (CymA-Fcc3 complex [2]) was “The addition of HQNO inhibited catalytic fumarate reduction (Figure 2B)”.
`CC(C)=CCC/C(C)=C/CC/C(C)=C/CC/C(C)=C/CC/C(C)=C/CC/C(C)=C/CC/C(C)=C/CC1=C(C)C(=O)c2ccccc2C1=O` [Menaquinone-7] was tested, and the “cyclic voltammetry, dithionite as reductant” value (CymA [3]) was “CymA is only able to reduce MQ-7 in the absence of Fcc3”.
In the case of `O=C(O)/C=C/C(=O)O` [fumarate], the “cyclic voltammetry, catalytic reduction current” value (Fcc3) is reported as “addition of fumarate had a large effect on the appearance of the CV”.
With `CC(C)=CCC/C(C)=C/CC/C(C)=C/CC/C(C)=C/CC/C(C)=C/CC/C(C)=C/CC/C(C)=C/Cc1c(C)c(O)c2ccccc2c1O` [menaquinol-7] the “cyclic voltammetry, membrane-modified gold electrode, MQ-7 content varied” value (CymA-Fcc3 complex [4]) was “the CymA-Fcc3 complex is able to oxidize MQ-7 in SSMs”.
